Experimental data published in ChEMBL document CHEMBL3039007, “Structure-based identification of OATP1B1/3 inhibitors” (Mol Pharmacol, 2013).

How the values were obtained:
[1] = target: T1, Solute carrier organic anion transporter family member 1B1 (Homo sapiens, UniProt Q9Y6L6); conditions: chinese hamster, cho, 10 µM
T1 sequence (Q9Y6L6 whole entry): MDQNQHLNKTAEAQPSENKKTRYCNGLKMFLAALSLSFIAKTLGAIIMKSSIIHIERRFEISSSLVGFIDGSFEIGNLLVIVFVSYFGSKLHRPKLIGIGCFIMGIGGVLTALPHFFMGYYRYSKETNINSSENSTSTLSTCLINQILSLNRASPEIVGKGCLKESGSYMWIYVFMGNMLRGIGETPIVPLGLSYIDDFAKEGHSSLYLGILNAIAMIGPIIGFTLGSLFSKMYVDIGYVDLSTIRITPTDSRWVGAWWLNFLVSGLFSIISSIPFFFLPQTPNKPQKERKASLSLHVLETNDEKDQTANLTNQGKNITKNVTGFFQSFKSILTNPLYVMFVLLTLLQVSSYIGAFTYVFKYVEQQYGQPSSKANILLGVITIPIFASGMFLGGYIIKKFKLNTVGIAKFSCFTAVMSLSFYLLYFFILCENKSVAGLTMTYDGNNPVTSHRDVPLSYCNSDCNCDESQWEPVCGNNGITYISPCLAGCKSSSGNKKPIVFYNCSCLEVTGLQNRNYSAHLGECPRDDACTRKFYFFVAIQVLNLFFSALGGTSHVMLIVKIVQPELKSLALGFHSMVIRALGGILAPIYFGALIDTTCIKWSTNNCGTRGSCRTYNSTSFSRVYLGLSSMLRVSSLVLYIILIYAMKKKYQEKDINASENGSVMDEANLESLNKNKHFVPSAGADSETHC

[2] = target: T2, Solute carrier organic anion transporter family member 1B3 (Homo sapiens, UniProt Q9NPD5); conditions: chinese hamster, cho, 10 µM
T2 sequence (Q9NPD5 whole entry): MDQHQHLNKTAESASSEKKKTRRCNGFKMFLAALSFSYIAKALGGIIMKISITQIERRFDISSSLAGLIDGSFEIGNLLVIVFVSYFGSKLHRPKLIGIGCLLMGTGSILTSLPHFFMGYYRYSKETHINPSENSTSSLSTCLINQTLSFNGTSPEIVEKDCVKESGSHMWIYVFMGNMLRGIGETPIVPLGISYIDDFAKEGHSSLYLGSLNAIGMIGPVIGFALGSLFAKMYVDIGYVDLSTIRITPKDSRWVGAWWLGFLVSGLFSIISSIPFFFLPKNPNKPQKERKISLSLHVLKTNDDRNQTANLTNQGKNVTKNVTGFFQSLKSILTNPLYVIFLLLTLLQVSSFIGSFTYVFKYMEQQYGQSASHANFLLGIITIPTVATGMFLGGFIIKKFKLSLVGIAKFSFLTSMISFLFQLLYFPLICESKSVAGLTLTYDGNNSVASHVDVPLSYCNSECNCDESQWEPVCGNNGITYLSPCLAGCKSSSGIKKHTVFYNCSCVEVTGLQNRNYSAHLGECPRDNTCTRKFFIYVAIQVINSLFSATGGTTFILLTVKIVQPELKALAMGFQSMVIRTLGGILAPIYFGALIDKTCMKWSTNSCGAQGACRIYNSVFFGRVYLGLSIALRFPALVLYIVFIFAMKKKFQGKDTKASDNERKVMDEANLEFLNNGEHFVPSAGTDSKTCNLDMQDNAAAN

SMILES: COc1c2ccccc2nc2occc12 [DICTAMNINE]
- residual activity [1]: 151.5%
- residual activity [2]: 118.6%

SMILES: CO/N=C(\C(=O)N[C@@H]1C(=O)N2C(C(=O)OCOC(=O)C(C)(C)C)=C(/C=C\c3scnc3C)CS[C@H]12)c1csc(N)n1 [CEFDITOREN PIVOXIL]
- residual activity [1]: 64.03%
- residual activity [2]: 82.75%

SMILES: CC(C)CC(NC(=O)C(C)N)C(=O)O (racemic) [ALANYL-dl-LEUCINE]
- residual activity [1]: 111.6%
- residual activity [2]: 98.55%

SMILES: CO[C@H]1C=C[C@@]23c4cc5c(cc4CN(C[C@@H]2O)[C@H]3C1)OCO5
- residual activity [1]: 94.19%
- residual activity [2]: 100.9196%

SMILES: CN1CC(=O)NC1=N [CREATININE]
- residual activity [1]: 105.7%
- residual activity [2]: 93.64%

SMILES: COc1cc2c(cc1O)C(Cc1ccc(O)cc1)N(C)CC2 (stereo not given) [METHYL COCLAURINE]
- residual activity [1]: 96.63%
- residual activity [2]: 94.46%

SMILES: COc1ccc2cc([C@H](C)CO)ccc2c1 [NAPROXOL]
- residual activity [1]: 241.9%
- residual activity [2]: 102.8%

SMILES: C[C@]12CC[C@@H](O)C[C@H]1CCc1ccccc12 [3alpha-HYDROXY-4,4-BISNOR-8,11,13-PODOCARPATRIENE]
- residual activity [1]: 77.88%
- residual activity [2]: 100.9%

SMILES: COc1ccc(-c2coc3cc(O)ccc3c2=O)cc1 [FORMONONETIN]
- residual activity [1]: 169.8%
- residual activity [2]: 114.7%

SMILES: CC(C)c1c(O)ccc2c1CCC1[C@@](C)(C(=O)O)CCC[C@]21C (stereo not given in full)
- residual activity [1]: 61.16%
- residual activity [2]: 80.85%

SMILES: CC(C)=CCC[C@]1(C)C=Cc2c(O)c3c(c(CC=C(C)C)c2O1)O[C@]12C(=C[C@@H]4C[C@H]1C(C)(C)O[C@@]2(C/C=C(/C)C(=O)O)C4=O)C3=O [GAMBOGIC ACID]
- residual activity [1]: 75.57%
- residual activity [2]: 65.8%

SMILES: COc1ccc2c(c1)OCC(Cc1ccc(OC)c(OC(C)=O)c1)C2=O (stereo not given) [DEOXYSAPPANONE B 7,3'-DIMETHYL ETHER ACETATE]
- residual activity [1]: 122.7%
- residual activity [2]: 148.3%

SMILES: CC(CCc1ccccc1)NCC(O)c1ccc(O)c(C(N)=O)c1.Cl (stereo not given) [LABETALOL HYDROCHLORIDE]
- residual activity [1]: 93.55%
- residual activity [2]: 101.4%

SMILES: Nc1c2ccccc2nc2ccccc12 [AMINACRINE]
- residual activity [1]: 54.19%
- residual activity [2]: 80.82%

SMILES: CC(=O)N[C@@H](Cc1c[nH]c2ccccc12)C(N)=O [ACETYLTRYPTOPHANAMIDE]
- residual activity [1]: 85.16%
- residual activity [2]: 60.38%

SMILES: Clc1ccc(Cl)cc1 [1,4-DICHLOROBENZENE]
- residual activity [1]: 99.98%
- residual activity [2]: 96.49%

SMILES: COc1ccc(-c2cc(=O)c3c(O)c(OC)c(O[C@@H]4O[C@H](CO[C@@H]5O[C@@H](C)[C@H](O)[C@@H](O)[C@H]5O)[C@@H](O)[C@H](O)[C@H]4O)cc3o2)cc1 [PECTOLINARIN]
- residual activity [1]: 39.1%
- residual activity [2]: 155.8%

SMILES: Nc1ccc(S(=O)(=O)[N-]c2cnc3ccccc3n2)cc1.[Na+] [SULFAQUINOXALINE SODIUM]
- residual activity [1]: 73.75%
- residual activity [2]: 102.9%

SMILES: C[C@H]1C[C@@H]2[C@H]([C@@H](O)C[C@@]3(C)[C@H]2CC[C@]3(O)C(=O)CO)[C@@]2(C)C=CC(=O)C=C12 [METHYLPREDNISOLONE]
- residual activity [1]: 79.56%
- residual activity [2]: 93.74%

SMILES: CC1=NS(=O)(=O)c2cc(Cl)ccc2N1 [DIAZOXIDE]
- residual activity [1]: 91.81%
- residual activity [2]: 91.61%

SMILES: Cc1nc2ccccn2c(=O)c1CCN1CCC(C(=O)c2ccc(F)cc2)CC1 [PIRENPERONE]
- residual activity [1]: 93.87%
- residual activity [2]: 102.6%

SMILES: CNC1(C)C2CCC(C2)C1(C)C.Cl (stereo not given) [MECAMYLAMINE HYDROCHLORIDE]
- residual activity [1]: 93.56%
- residual activity [2]: 106.8%

SMILES: CC=CC(=O)N(CC)c1ccccc1C
- residual activity [1]: 71.83%
- residual activity [2]: 72.95%

SMILES: CCOC(=O)c1c(C)cc(OC)cc1O [ETHYL EVERNINATE]
- residual activity [1]: 111.1%
- residual activity [2]: 102.6%

SMILES: C[C@]12CC[C@@H]3c4ccc(OS(=O)(=O)[O-])cc4CC[C@H]3[C@@H]1CC[C@@H]2O.[Na+]
- residual activity [1]: 53.18%
- residual activity [2]: 95.65%

SMILES: CC(C)N(C(=O)CCl)c1ccccc1 [PROPACHLOR]
- residual activity [1]: 110.8%
- residual activity [2]: 110.5%

SMILES: CC(C)[C@@H]1CC[C@@H](C)C[C@H]1OC(=O)c1ccccc1 [MENTHYL BENZOATE]
- residual activity [1]: 100.9%
- residual activity [2]: 101.1%

SMILES: CC(=O)Nc1ccccc1 [ACETANILIDE]
- residual activity [1]: 96.78%
- residual activity [2]: 100.2%

SMILES: CNC(=O)CSP(=S)(OC)OC [DIMETHOATE]
- residual activity [1]: 106.9%
- residual activity [2]: 114.1%

SMILES: CC(C)(C)NC[C@H](O)COc1nsnc1N1CCOCC1.O=C(O)/C=C\C(=O)O [TIMOLOL MALEATE]
- residual activity [1]: 113.3%
- residual activity [2]: 102.2%

SMILES: CN1CCN(CC/C=C2/c3ccccc3Sc3ccc(S(=O)(=O)N(C)C)cc32)CC1 [THIOTHIXENE]
- residual activity [1]: 72.97%
- residual activity [2]: 115.8%

SMILES: COc1ccc2oc(-c3ccccc3)c(OC)c(=O)c2c1 [3,6-DIMETHOXYFLAVONE]
- residual activity [1]: 99.01%
- residual activity [2]: 76.93%

SMILES: Clc1ccc(CO/N=C(\Cn2ccnc2)c2ccc(Cl)cc2Cl)c(Cl)c1.O=[N+]([O-])O [OXICONAZOLE NITRATE]
- residual activity [1]: 116%
- residual activity [2]: 122.3%

SMILES: NC(=O)CN1CCCC1=O
- residual activity [1]: 88.77%
- residual activity [2]: 103.1%

SMILES: NC(=O)c1ncn([C@@H]2O[C@H](CO)[C@@H](O)[C@H]2O)c1O [MIZORIBINE]
- residual activity [1]: 113.4%
- residual activity [2]: 100.4%

SMILES: CCCCCCCCCCCCCCCC[n+]1ccccc1.O.[Cl-]
- residual activity [1]: 77.95%
- residual activity [2]: 166.6%

SMILES: C/C=C/c1ccc(OC)cc1 [ANETHOLE]
- residual activity [1]: 89.5%
- residual activity [2]: 124.1%

SMILES: COc1ccc(-c2cc(=O)c3c(O)cc(O[C@@H]4O[C@H](CO[C@@H]5O[C@@H](C)[C@H](O)[C@@H](O)[C@H]5O)[C@@H](O)[C@H](O)[C@H]4O)cc3o2)cc1O [DIOSMIN]
- residual activity [1]: 67.13%
- residual activity [2]: 93.34%

SMILES: O=c1c(O)c(-c2ccc(O)cc2O)oc2cc(O)cc(O)c12 [MORIN]
- residual activity [1]: 24.17%
- residual activity [2]: 45.37%

SMILES: C=CCc1ccc(O)c(OC)c1 [EUGENOL]
- residual activity [1]: 106%
- residual activity [2]: 104.3%

SMILES: CC(=O)Oc1cc2c(c(C)c1OC(C)=O)CC=C1[C@]2(C)CC[C@]2(C)[C@@H]3C[C@](C)(C(=O)O)CC[C@]3(C)CC[C@@]12C
- residual activity [1]: 47.56%
- residual activity [2]: 13.7%

SMILES: CC(=O)O[C@H]1CC[C@@]23C(=O)O[C@]45CC[C@H](C6=CC(=O)OC6)[C@@]4(C)CC[C@H]2[C@H]5CC[C@]3(O)C1
- residual activity [1]: 59.99%
- residual activity [2]: 85.76%

SMILES: O=C(CCc1ccc(O)cc1)c1c(O)cc(O)cc1O [PHLORETIN]
- residual activity [1]: 83.5%
- residual activity [2]: 98.4%

SMILES: CC(N)C(O)c1ccc(O)c(O)c1.Cl (stereo not given) [NORDEFRIN HYDROCHLORIDE]
- residual activity [1]: 122.3%
- residual activity [2]: 103.4%

SMILES: CN1CCCCC1c1ccc(-c2cccnc2)nc1.Cl (stereo not given) [ANABASAMINE HYDROCHLORIDE]
- residual activity [1]: 100%
- residual activity [2]: 108.2%

SMILES: N[C@@H](CCC(=O)N[C@@H](CS)C(=O)NCC(=O)O)C(=O)O [GLUTATHIONE]
- residual activity [1]: 67.16%
- residual activity [2]: 87.82%

SMILES: CC1=C(/C=C/C(C)=C/C=C/C(C)=C/C=C/C=C(C)/C=C/C=C(C)/C=C/C2=C(C)C(=O)[C@@H](O)CC2(C)C)C(C)(C)C[C@H](O)C1=O [ASTAXANTHIN]
- residual activity [1]: 95.25%
- residual activity [2]: 87.19%

SMILES: CCN1CCCC1CNC(=O)c1cc(S(N)(=O)=O)ccc1OC (stereo not given) [SULPIRIDE]
- residual activity [1]: 121.8%
- residual activity [2]: 106.2%

SMILES: CC(C)NC(=N)NC(=N)Nc1ccc(Cl)cc1.Cl [PROGUANIL HYDROCHLORIDE]
- residual activity [1]: 77.71%
- residual activity [2]: 114.8%

SMILES: COc1cc(O)c(C(=O)c2ccccc2)cc1O [CEAROIN]
- residual activity [1]: 91.48%
- residual activity [2]: 120.9%
